Where two headings read alike, the source gives them in different places.
How the values were obtained:
[1] = system: tremoromimetic effects of oxotremorine; format: in vivo, mice
Text: (§1) This "tremorolytic" dose is designated as T. As a standard for the peripheral effect the dose of the compound in mg/kg, which doubles the diameter of the pupil, is given. This "mydriatic" dose is designated as M. The ratio between M and T will constitute a standard for specific central effect of the substance. A higher value for M/T corresponds to a higher specificity.

[2] = system: diameter of the pupil; assay: animal or person; format: in vivo, mice; conditions: Mus musculus
Text: as §1

[3] = system: oxotremorine tremor response; assay: Oxotremorine antagonism: affinity constant from shift of median effective tremor dose of oxotremorine (Dixon up-and-down method); format: in vivo, mice; conditions: AL-301 set equal to 1.0
Experimental: It was tested in the following manner:
Four or more groups, each containing six female mice weighing 22 to 26 grams, were selected. To establish a control, each member of the first group was dosed in sequence with oxotremorine in the absence of any test compound.
In the Dixon method the first animal is treated at an arbitrarily selected level and the presence or absence of tremor response is noted. An increased or decreased dosage is then selected according to the schedule specified by the Dixon procedure for the second animal which would tend to produce a change in the tremor response.
For each test group, the increased median effective dose of oxotremorine was determined in the same manner.
To compare the potency of the test compound the affinity constant was obtained from the data. The affinity constant is that concentration of test compound which when administered blocks the oxotremorine response so that twice the concentration of oxotremorine is necessary to evoke the same response as was produced in the absence of the test compound.

[4] = system: oxotremorine-induced tremor; conditions: cited from earlier work
[5] = mydriatic dose / tremorolytic dose, higher value = higher specificity
[6] = dose which doubles the diameter of the pupil, mice, read-out: Mydriatic Dose

SMILES: CC(C#CCN1CCCCCC1)N1CCCC1=O (stereo not shown) [N-(1-methyl-4-perhydroazepino-2-butynyl)-pyrrolidin-2-one]
- Tremorolytic Dose (T) ([1]; mouse, in vivo, iv): 0.32 mg/kg
- M/T ratio (specific central effect) [1, 5]: 6.25
- ED (doubling of pupil diameter) [2, 6]: 2 mg/kg
- Ratio of affinity constant dosages (relative potency) [3]: 9.0

SMILES: CN1[C@@H]2CC[C@H]1C[C@@H](OC(=O)C(CO)c1ccccc1)C2 (stereo partly shown) [atropine]
- antagonism of oxotremorine-induced tremor ([4]; in words): antagonize the oxotremorine-induced tremor
- side effect: antagonism of peripheral cholinergic effects of oxotremorine ([4]; in words): antagonizing the peripheral cholinergic effects of oxotremorine

SMILES: CC(C#CCN1CCCC1)N1CCCC1=O (stereo not shown) [N-(1-methyl-4-pyrrolidino-2-butynyl)-pyrrolidin-2-one]
- Tremorolytic Dose (T) ([1]; dose which inhibits the effect of 150 μg/kg of oxotremorine i.v., mice): 0.19 mg/kg
- M/T ratio (specific central effect) [1, 5]: 3.26
- ED (doubling of pupil diameter) ([2]; read-out: Mydriatic Dose (M)): 0.62 mg/kg
- Ratio of affinity constant dosages (relative potency) [3]: 17.0
- Ratio of affinity constant dosages (relative potency) ([3]; listed as n = 4): 17

SMILES: OC(CCN1CCCCC1)(c1ccccc1)C1CCCCC1 (stereo not drawn) [Artane, α-cyclohexyl-α-phenyl-1-piperidine-propanol, reference compound]
- Ratio of affinity constant dosages (relative potency) [3]: 1.8

SMILES: CCN(CC)CCOC(=O)C1(c2ccccc2)CCCC1 [caramiphen, 1-phenylcyclopentanecarboxylic acid 2-diethylaminoethyl ester]
- side effect: antagonism of peripheral cholinergic effects of oxotremorine ([4]; in vivo): antagonizing the peripheral cholinergic effects of oxotremorine
- antagonism of oxotremorine-induced tremor ([4]; in words): antagonize the oxotremorine-induced tremor

SMILES: CC(C#CCN1CCCCC1)N1CCCC1=O (stereo not shown) [N-(1-methyl-4-piperidino-2-butynyl)-pyrrolidin-2-one]
- Ratio of affinity constant dosages (relative potency) [3]: 8.5

SMILES: OC(CCN1CCCCC1)(c1ccccc1)C1CCCCC1 (stereo not shown) [benzhexol, reference compound]
- M/T ratio (specific central effect) ([1]; mouse, in vivo): 0.21
- Tremorolytic Dose (T) ([1]; mouse, in vivo, iv): 5.5
- ED (doubling of pupil diameter) [2, 6]: 1.15 mg/kg

SMILES: O=C1CCCN1CC#CCN1CCCC1 [oxotremorine, N-(4-pyrrolidino-2-butynyl)-pyrrolidin-2-one]
- effects of oxotremorine ([4]; immediately after injection by intravenous routes, several species of laboratory animals): induces violent generalized tremors, spasticity, hypokinesia and parasympathomimetic effects
